In ChEMBL document CHEMBL1156548, “Determination and characterization of new benzimidazoles with activity against Trypanosoma cruzi by UV spectroscopy and HPLC” (Bioorg Med Chem, 2008):

Tests used:
[1] = Ionisation constant, pKa corresponding to acid proton of […] benzimidazole ring; type: physicochemical
Trypanosoma cruzi [2] = experiment: Inhibition of oxygen uptake in Trypanosoma cruzi MF epimastigotes at 300 uM by polarography; type: functional
Trypanosoma cruzi [3] = experiment: Antiparasitic activity against Trypanosoma cruzi MF epimastigotes after 7 days by nephelometry; type: functional, organism-based; details: 168 h
[4] = Ionisation constant, pKa corresponding to weak base of […] benzimidazole ring; type: physicochemical
[5] = Effective permeability by HPLC-based PAMPA; type: ADME; details: read-out: permeability
[6] = Effective permeability by UV-based PAMPA; type: ADME; details: read-out: permeability
[7] = Partition coefficient, log P of the compound; type: physicochemical; details: octanol/water
[8] = Ionisation constant, pKa of the compound; type: physicochemical

Structure (SMILES)	pKa [1]	inhibition at 300 µM (Trypanosoma cruzi [2]) [%]	IC50 (Trypanosoma cruzi [3]) [µM]	pKa [4]	Papp [5] [×10⁻⁶ cm/s]	Papp [6] [×10⁻⁶ cm/s]	logP [7]	pKa [8]
O=[N+]([O-])c1ccccc1-c1nc2ccccc2[nH]1	11.4	40	117	5.69	8	12	2.2	–
O=C(c1ccccc1)n1c(-c2ccccc2[N+](=O)[O-])nc2ccccc21	–	20	94	–	–	–	3.1	4.9
O=C(c1ccc([N+](=O)[O-])cc1)n1c(-c2ccccc2[N+](=O)[O-])nc2ccccc21	–	–	80	–	–	–	2.8	4.79
COc1ccc(C(=O)n2c(-c3ccccc3[N+](=O)[O-])nc3ccccc32)cc1	–	–	64	–	–	–	3.2	4.71
O=C(c1ccc(Cl)cc1)n1c(-c2ccccc2[N+](=O)[O-])nc2ccccc21	–	–	78	–	–	–	3.6	4.69
